Earlier results on one compound are cited in patent publication US20030170327A1, “Vitamin and zinc monomethionine compositions” (priority 2002, published 2003).

For the data set the following is noted: versus other forms of zinc found in nutritional supplements.

Turning to `CSCC[C@H](N)C(=O)O.[Zn]` [zinc monomethionine], the “absorption in comparison to other forms of zinc” value is “better absorbed” and the “retention in comparison to other forms of zinc” value is “retained longer”.
